# Measurements: paper PMC6687188, “Novel lactate dehydrogenase inhibitors with in vivo efficacy against Cryptosporidium parvum” (PLoS Pathogens, 2019)
# Target: recombinant CpLDH protein (Cryptosporidium parvum, UniProt Q9GT92, F198L/K295E/R251K)
row,Structure (SMILES),MEAN CpLDH INHIBITION (%)
1,CCN(CC)Cc1cc(N=Nc2c(O)ccc3c(N=Nc4ccc(O)c(CN(CC)CC)c4)c(O)ccc23)ccc1O.Cl [NSC359463],-17.14%
2,COC(=O)C1(C)CCCC2(C)C3CCC4CC3(C=C4CO)CCC12 (stereo not shown) [NSC360861],-29.11%
3,CN1CCN(CN2C(=O)C3C4C=CC(C3C2=O)C2C3C(=O)N(CN5CCN(C)CC5)C(=O)C3C42)CC1 (stereo not shown) [NSC361813],-202.91%
4,COC(=O)NC1C(C)OC(OC2C/C=C(/C)C3C=CC4C(OC5CC(OC6CC(O)C(OC7CC(O)C(OC)C(C)O7)C(C)O6)C(O)C(C)O5)C(C)CC(C)C4C3(C)/C(O)=C3\C(=O)OC4(CC(C)C(CO)=CC4/C=C\2C)C3=O)CC1(C)[N+](=O)[O-] (stereo not shown) [NSC363182],-79.07%
5,CC1(C)[C@@H]2CC[C@@]1(CS(=O)(=O)O)C(=O)C2.CN1[C@@H](c2ccccc2)CC(=NO)C[C@H]1c1ccccc1 [NSC363744],-9.54%
6,Cl.O=C1c2cccc(NCCCNCCO)c2C(=O)c2cccc(NCCCNCCO)c21 [NSC363998],-2.96%
7,N#CC(=S)Nc1ccc(F)cc1 [NSC369317],-8.49%
8,Cc1ccc(NC(=S)C#N)c(C)c1 [NSC369318],-37.61%
9,COc1ccc2c(c1)CCc1c-2n[nH]c1-c1[nH]nc2c1CCc1cc(OC)ccc1-2 [NSC371846],-16.04%
10,CN1C(Cl)=NS(=O)(=O)c2ccccc21 [NSC373853],-15.72%
11,Cc1ccc(NC(=O)c2cc3ccccc3c(N=Nc3ccccc3O)c2O)c(C)c1 [NSC374898],-39.33%
12,CC1(C)CCC[C@]2(C)C3=C(CC[C@@H]12)C(=O)OC3 [NSC375294],-39.63%
13,Nc1ccn([C@@H]2C=C(CO)[C@@H](O)[C@H]2O)c(=O)n1 [NSC375575],-28.69%
14,COc1cc2oc3cc(=O)cc4oc(-c5ccccc5)cc(c2c2c1CCC(c1ccccc1)O2)c43 (stereo not shown) [NSC376248],-15.03%
15,C/C(=N\NC(=S)N1CCN(C2CCCCCC2)CC1)c1ccccn1 [NSC376265],-34.26%
16,CC1(C)NC(=O)N(CCCCCCN2C(=O)NC(C)(C)C2=O)C1=O [NSC376791],-26.30%
17,N#CC(=S)Nc1ccc(Cl)c(Cl)c1 [NSC379531],-50.91%
18,C=C(CN(C)C)C(=O)c1ccccc1Cl.Cl [NSC382007],-43.42%
19,Br.CCN(CC)CC(C)(C)C(=O)/C=C/c1ccc(C)cc1 [NSC382766],-40.98%
20,O=C1C=Cc2ncccc2C1=O [NSC400944],-2.52%
21,CC1=C2C(=CC(C)(C)[C@@H]2O)C(=O)[C@](C)(O)C12CC2 [NSC400978],-79.24%
22,COc1cc([C@@H]2c3cc4c(cc3C[C@H]3COC(=O)[C@@H]32)OCO4)cc(OC)c1OC [NSC403148],-8.59%
23,C[C@@H]1CC[C@H]2C(C)(C)[C@H]3C[C@@]12CC[C@@]3(C)O [NSC403883],-51.63%
24,N#CC(=C1C=CC(=NO)C=C1)c1ccc(Cl)cc1 [NSC405158],-30.77%
25,OCC1OC(n2cnc3c(=S)nc[nH]c32)C(O)C1O (stereo not shown) [NSC406021],-17.89%
26,CC(=O)OC1CC(n2cc(F)c(=O)[nH]c2=O)OC1CO (stereo not shown) [NSC407335],-11.80%
27,C[C@]12CC[C@H](O)C[C@H]1CC[C@@H]1[C@@H]2CC[C@]2(C)[C@@H](C3=CC(=O)OC3)CC[C@]12O [NSC407806],-16.59%

row,Structure (SMILES),MEAN CpLDH INHIBITION (%)
1,Cc1cc(O)c2c(c1)C(=O)c1cc(O)cc(O)c1C2=O [NSC408120],-6.79%
2,CC(C)c1ccc2nc3ccc(C(=O)NCCN(C)C)cn3c(=O)c2c1 [NSC600305],-31.37%
3,CCCCCn1cc2c3c(cccc31)C1C=C(C)CN(C)[C@@H]1C2.Cc1ccc(C(=O)OC(C(=O)O)C(OC(=O)c2ccc(C)cc2)C(=O)O)cc1 (stereo not shown) [NSC600681],-36.35%
4,CCN(CC)CCOc1ccccc1/C=C/c1noc2ccccc12.Cl [NSC601101],-6.25%
5,Cc1nc2c(nc1C)C(=O)c1ccccc1C2=O [NSC602617],-40.33%
6,CN(C)c1cccc(F)c1C(=O)NC(=O)Nc1ccc(Cl)cc1 [NSC603108],-29.93%
7,Cc1ccc(S(=O)(=O)[O-])cc1.Cc1ccc(S(=O)(=O)[O-])cc1.Cn1c(-c2ccc(/C=C/C=N/NC(=O)c3ccc(C(=O)N/N=C/C=C/c4ccc(-c5c[n+]6ccccc6n5C)cc4)cc3)cc2)c[n+]2ccccc12 [NSC603169],-164.45%
8,C[Si](C)(CN)CN.[Cl][Pt][Cl] [NSC603577],-0.38%
9,Cc1ccc(S(=O)(=O)NC(=O)NC2=NC(C)(C)N(c3ccc(Cl)c(Cl)c3)C(N)=N2)cc1 [NSC603624],-12.73%
10,O=c1[nH]c2ccc(O)cc2o1 [NSC603719],-2.52%
11,C[C@H](CSC(=O)c1ccccc1)C(=O)N1c2ccccc2C[C@H]1C(=O)O [NSC604535],-8.81%
12,Cl.Nc1ccc2cc3ccc(N)cc3nc2c1 [NSC605756],-35.77%
13,CC(C)(C)OC(=O)NC(Cc1ccccc1)C(=O)OCN1C(=O)C2C3C=CC(C2C1=O)C1C2C(=O)N(COC(=O)C(Cc4ccccc4)NC(=O)OC(C)(C)C)C(=O)C2C31 (stereo not shown) [NSC607316],-7.22%
14,O=[N+]([O-])c1ccc(-c2cn(-c3ccc(Cl)cc3)cn2)cc1 [NSC610744],-19.53%
15,COc1cc(C(O)CCBr)c(OC)cc1C (stereo not shown) [NSC611750],-11.25%
16,CC(=O)Oc1ccc(C(c2ccc(OC(C)=O)cc2)c2ccccn2)cc1 [NSC614826],-3.85%
17,CC1(C)C(O)OC(O)C1(C)C (stereo not shown) [NSC614928],-7.87%
18,C=C(C#N)C(=O)OCC(CC)CC.C=C(C#N)C(=O)OCC(CC)CC.CS(C)=O.CS(C)=O.Nc1c(N=Nc2ccc(-c3ccc(N=Nc4cc(S(=O)(=O)[O-])c5ccccc5c4N)cc3)cc2)cc(S(=O)(=O)[O-])c2ccccc12.[Pt+2] [NSC615593],-2.09%
19,OC(CBr)C(O)C(O)C(O)CBr (stereo not shown) [NSC616232],-42.37%
20,CC(C)(C)[Si](C)(C)OCC1CCC(n2cnc3c(N)ncnc32)O1 (stereo not shown) [NSC616355],-24.91%
21,CCCCCC/C=C\CCCCCCCCCc1cccc(OC)c1O [NSC617540],-6.79%
22,COc1ccc2c(c1)C=C([N+](=O)[O-])C(C1OC(C)(C)OC1C1COC(C)(C)O1)O2 (stereo not shown) [NSC618261],-65.69%
23,O=C1C(Br)=C(Br)C(=O)c2ccccc21 [NSC618332],-7.70%
24,C/C=C(\CCC1NCCc2c1[nH]c1ccccc21)[Si](C)(C)C (stereo not shown) [NSC619165],-14.52%
25,O=C([O-])c1cc(I)cc(I)c1[OH2+].O=C([O-])c1cc(I)cc(I)c1[OH2+].[Mn+2] [NSC619907],-115.80%
26,COC(=O)C[S+]([O-])c1ccccc1 (stereo not shown) [NSC620050],-37.27%
27,O=C1CC[C@H](NC(=O)Cc2ccccc2)C(=O)N1 [NSC620261],-132.95%

row,Structure (SMILES),MEAN CpLDH INHIBITION (%)
1,N#CCCN(CCC#N)c1ccc(C=Nc2ccc(F)cc2)cc1 [NSC620277],-46.45%
2,CCOC(=O)c1ccc(N=Cc2ccc(N(CCC#N)CCC#N)cc2)cc1 [NSC620279],-17.13%
3,Cc1c(N=Cc2ccc(N(CCC#N)CCC#N)cc2)c(=O)n(-c2ccccc2)n1C [NSC620280],-51.47%
4,C=C1C(=O)C23CC[C@@H]4C(C)(C(=O)OC)CCCC4(C)[C@@H]2CCC1(O)C3 (stereo partly shown) [NSC620358],-24.86%
5,CC1=NN(C(=O)c2ccncc2)C(=O)C1N=Nc1ccc(F)cc1 (stereo not shown) [NSC621094],-33.52%
6,Cc1cc2c(cc1C)[n+](=O)c(C(=O)/C=C/c1ccccc1[N+](=O)[O-])c(C)n2[O-] [NSC621486],-0.42%
7,C[N+](C)(C)CC1CCCC1=O.[I-] (stereo not shown) [NSC621889],-0.31%
8,[Mo] [NSC622116],-10.74%
9,[Mo] [NSC622124],0.01%
10,COc1ccc(-n2/c(=N/C(=S)N(C)C)ss/c2=N\C(=S)N(C)C)cc1 [NSC622586],-55.77%
11,CN(C)C(=S)/N=c1\ss/c(=N\C(=S)N(C)C)n1-c1ccc2c(c1)OCO2 [NSC622589],-7.95%
12,Br.CN(C)c1nc(=NCc2ccco2)ss1 [NSC622608],-22.44%
13,CCOC(=O)CCc1c(C)c2c(O)cc(O)cc2oc1=O [NSC622616],-39.56%
14,O=[N+]([O-])c1cc(C(F)(F)F)cc([N+](=O)[O-])c1CCl [NSC622627],-26.97%
15,NC(=O)c1c([N+](=O)[O-])cc(C(F)(F)F)cc1[N+](=O)[O-] [NSC622640],-12.99%
16,CCOC(=O)/N=C(\N)SCc1ccccc1 [NSC622684],-0.38%
17,CC1=C/C(=C2/N=C(N(C)C)SS2)C(C)=N1.[O-][Cl+3]([O-])([O-])O [NSC622690],-0.50%
18,Cn1ncc2cc3c(Nc4ccc(Cl)cc4)cccc3nc21 [NSC622732],-35.66%
19,Cc1cc(Cl)ccc1N1C(=O)C(=O)C(c2nc3ccccc3o2)C(=O)C1=O [NSC623051],-30.82%
20,COc1ccc2nc(NC(=O)C(=O)CC(=O)c3ccc(Cl)cc3)sc2c1 [NSC623059],-31.35%
21,O=C(Nc1ccccc1-c1nn(C(=S)Nc2ccccc2)c(=S)n(C(=S)Nc2ccccc2)c1=O)C(F)(F)F [NSC623093],-49.57%
22,CN(C)c1ccc(/C=c2/sc3nc(=O)c(-c4ccccc4NC(=O)C(F)(F)F)nn3c2=O)cc1 [NSC623095],-151.18%
23,CC(=O)OCc1c2ccccc2c(C)c2c1cc(F)c1ccccc12 [NSC623135],-28.47%
24,COC(=O)c1ccccc1OCc1cc(=O)oc2ccc(C)cc12 [NSC623637],-23.29%
25,CCOC(=O)C1=C(O)CSC1=Nc1ccc(N=C2SCC(O)=C2C(=O)OCC)cc1 [NSC623746],-45.42%
